US10221138B2, “Biaryl derivatives as GPR120 agonists” (LG CHEM, LTD., priority 2013, dated 2019)

These molecules were tested against T1, hGPR120 (Homo sapiens, UniProt Q5NUL3) (assay: Measurement of activity of GPR120 agonist (cell-based calcium fluorescence assay)). Settings: CHO-K1 cells expressing Ga16 and hGPR120, Calcium 5 dye fluorescence; activity class; read-out: EC50.
T1 construct: expressed in transfected cells; host or cells: CHO-K1
T1 sequence (Q5NUL3 1-361): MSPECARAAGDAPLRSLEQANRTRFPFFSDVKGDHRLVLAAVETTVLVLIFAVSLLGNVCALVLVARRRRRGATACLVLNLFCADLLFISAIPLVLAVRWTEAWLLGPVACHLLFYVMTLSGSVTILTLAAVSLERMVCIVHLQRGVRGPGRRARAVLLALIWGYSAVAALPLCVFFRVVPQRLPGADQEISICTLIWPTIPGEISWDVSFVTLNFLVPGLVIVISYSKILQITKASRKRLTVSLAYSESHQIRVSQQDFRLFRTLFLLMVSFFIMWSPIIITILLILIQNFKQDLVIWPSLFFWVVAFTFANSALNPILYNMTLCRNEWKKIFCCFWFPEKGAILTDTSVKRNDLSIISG
Experimental: CHO-K1 cells expressing Ga16 and hGPR120 were dispensed into each well of a 96-well plate (3×10^4 cells/100 μl/well) and then incubated in 5% CO2, 37° C. incubator for 18 hours. Each well was treated with 100 μl of Calcium 5 dye (Molecular Devices) solution including 2% DMSO and then incubated in 5% CO2, 37° C. incubator for 1 hour. Serially diluted GPR120 agonists were prepared to a final concentration of 0.5% DMSO in a 96-well plate.
Fluorescence increased by the serially diluted GPR120 agonists is calculated as a relative percent (%) value based on the fluorescence represented by the treatment of 1% DMSO only. […] The calculation of measurement was carried out by using statistical software (Prizm).
Activity is denoted based on the following criteria: […]

SMILES | EC50 [nM]
C[C@H](CCC(=O)O)Oc1c(F)cc(-c2cccc(OC3CCC3)c2)cc1F [Example 116, (4R)-4-[4-[3-(cyclobutoxy)phenyl]-2,6-difluoro-phenoxy]pentanoic acid] | < 200
O=C(O)CCCOc1c(F)cc(-c2cccnc2OC2CCOCC2)cc1F [Example 68, 4-{2,6-difluoro-4-[2-(tetrahydro-pyran-4-yloxy)-pyridin-3-yl]-phenoxy}-butyric acid] | 200 to 2000
O=C(O)CCCOc1ccc(-c2cccc(Oc3ccccc3)n2)cc1 [Example 1, 4-[4-(6-phenoxy-2-pyridyl)phenoxy]butyric acid] | 200 to 2000
O=C(O)CCCSc1ccc(-c2cccc(F)c2OC2CCCC2)cc1F [Example 194, 4-(2′-cyclopentyloxy-3,3′-difluoro-biphenyl-4-ylsulfanyl)-butyric acid] | > 20000
CC(C)Nc1ncccc1-c1cc(F)c(OCCCC(=O)O)c(F)c1 [Example 76, 4-[2,6-difluoro-4-[2-(isopropylamino)-3-pyridyl]phenoxy]butanoic acid] | 200 to 2000
O=C(O)CCCOc1c(F)cc(-c2cccnc2N2CCC(F)(F)C2)cc1F [Example 215, 4-[4-[2-(3,3-difluoropyrrolidin-1-yl)-3-pyridyl]-2,6-difluoro-phenoxy]butanoic acid] | 200 to 2000
O=C(O)CCCOc1ccc(-c2ccccc2OCC2CC2)cc1 [Example 58, 4-(2′-cyclopropylmethoxy-biphenyl-4-yloxy)-butyric acid] | 200 to 2000
CC(C)Sc1cccc(-c2ccc(OCCCC(=O)O)c(Cl)c2)n1 [Example 4, 4-[2-chloro-4-(6-isopropylsulfanyl-2-pyridyl)phenoxy]butyric acid] | 200 to 2000
CC(C)(C)Sc1ncccc1-c1cc(F)c(OCCCC(=O)O)c(F)c1 [Example 63, 4-[4-(2-tert-butylsulfanyl-pyridin-3-yl)-2,6-difluoro-phenoxy]-butyric acid] | 2000 to 20000
O=C(O)CCCOc1c(F)cc(-c2cccnc2OCC2CC2)cc1F [Example 46, 4-[4-(2-cyclopropylmethoxy-pyridin-3-yl)-2,6-difluoro-phenoxy]-butyric acid] | 200 to 2000
O=C(O)CCCOc1c(F)cc(-c2cc(Cl)ccc2NC2CCCC2)cc1F [Example 95, 4-[4-[5-chloro-2-(cyclopentylamino)phenyl]-2,6-difluoro-phenoxy]butanoic acid] | 200 to 2000

Next, values leading:

EC50 [nM] | SMILES
< 200 | CC(C)Oc1ncccc1-c1ccc(SCCCC(=O)O)c(F)c1 [Example 171, 4-[2-fluoro-4-(2-isopropoxy-pyridin-3-yl)-phenylsulfanyl]-butyric acid]
200 to 2000 | O=C(O)CCCOc1c(F)cc(-c2cccc(N3CCCCC3)n2)cc1F [Example 15, 4-[2,6-difluoro-4-[6-(1-piperidyl)-2-pyridyl]phenoxy]butyric acid]
< 200 | CC(CCC(=O)O)Sc1c(F)cc(-c2cccnc2OC2CCCC2)cc1F (stereo not shown) [Example 201, 4-[4-(2-cyclopentyloxy-pyridin-3-yl)-2,6-difluoro-phenylsulfanyl]-pentanoic acid]
< 200 | CCCOc1ncccc1-c1cc(F)c(SCCCC(=O)O)c(F)c1 [Example 139, 4-[2,6-difluoro-4-(2-propoxy-pyridin-3-yl)-phenylsulfanyl]-butyric acid]
< 200 | O=C(O)CCCCSc1ccc(-c2cccnc2SC2CCC2)cc1 [Example 259, 5-[4-(2-cyclobutylsulfanyl-pyridin-3-yl)-phenylsulfanyl]-pentanoic acid]
< 200 | O=C(O)CCCSc1ccc(-c2cc(F)ccc2NC2CCCC2)cc1F [Example 175, 4-(2′-cyclopentylamino-3,5′-difluoro-biphenyl-4-ylsulfanyl)-butyric acid]
< 200 | CC(C)Nc1cccc(-c2cc(F)c(OCCCC(=O)O)c(F)c2)c1 [Example 91, 4-[2,6-difluoro-4-[3-(isopropylamino)phenyl]phenoxy]butanoic acid]
< 200 | O=C(O)CCCCOc1c(F)cc(-c2cccnc2OCC2CC2)cc1F [Example 239, 5-[4-[2-(cyclopropylmethoxy)-3-pyridyl]-2,6-difluoro-phenoxy]pentanoic acid]
